Test results taken from US20240360145A1, “PYRIMIDINE-2,4-DIAMINE DERIVATIVES AS WELL AS PREPARATION METHOD THEREFOR AND USE THEREOF” (LISEN THERAPEUTICS, INC., priority 2022, published 2024).

Assays:
PE062 primary cells = assay: Cell viability IC50 (CCK-8), primary cells PE062 from small cell lung cancer pleural effusion; assay type: cell-based; conditions: PE062, CCK-8
Experimental: (§1) (1) The pleural effusion was poured into a 15 mL or 50 mL of sterilized centrifuge tube for centrifugation. Centrifugation conditions: 800 to 1000 rpm, 5 min.
(§2) (2) The precipitate was resuspended and washed for 2 to 3 times with PBS.
(§3) (3) The cell precipitate was resuspended with complete culture medium (α-MEM medium containing 10% fetal bovine serum and 2% penicillin-streptomycin), and the flocculent matter in the pleural effusion was removed using a sterilized cell sieve.
(§4) (4) The red blood cells in the pleural effusion were removed with lymphocyte separation fluid, and the tumor cells and lymphocyte components were collected. The number of tumor cells was observed under a microscope, and the cells were inoculated.
(§5) (5) After 24 hours, the supernatant was discarded, and fresh culture medium was added for further culture.
(§6) (6) The cell growth status was observed, and it was determined based on the cell status whether the medium was required to be continuously changed to remove blood cells. When the cells grew to a density of 80% to 90%, the cells were preserved.
(§7) (1) Primary cells from lung cancer pleural effusion within 5 generations were cultured to the logarithmic growth phase. […] After centrifugation at room temperature, the supernatant was discarded, and the cell precipitate was resuspended with fresh complete culture medium. After counting, the cells were placed at room temperature for later use. The cells were inoculated into a 384-well plate at a density of 2000 cells/well with a volume of 40 μl/well. The wells at the outermost circle of the plate were not inoculated with cells, and instead, added with sterile water to reduce evaporation of the culture medium.
(§8) (2) After overnight culture of the cells, the medium was discarded, and a fresh medium containing different concentrations of compounds was added at 200 μl/well. The dilution method of the compound was as follows: first the compound with the highest concentration of 10 μM was prepared, and then the compound was diluted for 3 times in sequence. […] At the same time, a blank control group was set up, in which only an equal volume of culture medium was added without adding cells. Five replicate wells were set up for each group. The cells were placed in the incubator for further culture.
(§9) (3) After 72 hours, 8 μl of CCK-8 solution, which was double-diluted with 10 mM PBS, was added to each well, and the cells were shaken and placed in an incubator at 37° C. for further culture for 2 hours.
(§10) (4) The light absorbance value at 450 nm was read using a microplate reader, and the IC50 was calculated according to the absorbance value. The calculation method was the same as above.
(§11) (1) Sample information: PE039, PE052, and PE062 were all primary cell samples from pleural effusion of patients with small cell lung cancer, and LT015 was a primary cell sample from bronchoscopic biopsy of a patient with small cell lung cancer.
(§12) (2) CCK-8 detection was used to detect the IC50 values of different medicaments (compounds).

PE052 primary cells = assay: Cell viability IC50 (CCK-8), primary cells PE052 from small cell lung cancer pleural effusion; assay type: cell-based; conditions: PE052, CCK-8
Experimental: as §1, §2, §3, §4, §5, §6, §7, §8, §9, §10, §11, §12

NCI-H1792 cells = assay: Cell viability IC50 (MTT), AMG510-resistant NCI-H1792 cells; assay type: cell-based; conditions: Homo sapiens, NCI-H1792 cells (KRAS G12C)
Experimental: Non-small cell lung cancer cell lines NCI-H1975, NCI-H1650, and NCI-H1792 were cultured in RPMI-1640 medium containing 10% fetal bovine serum and 1% penicillin-streptomycin. 1% sodium pyruvate was additionally added when culturing NCI-H1975 cells. All the cells were cultured in a constant temperature incubator containing 5% CO2 at 37° C.
(1) The cells were cultured to the logarithmic growth phase. When the confluence reached about 90%, the cells were digested with 0.25% trypsin, and complete medium was added to collect the cells. After centrifugation at room temperature, the supernatant was discarded, and the cell precipitate was resuspended with fresh complete medium. […]
(5) The medium was carefully aspirated off, 100 μl of DMSO was added to dissolve the precipitate formed by the reaction with MTT, shaking and mixing to mix the blue-violet crystals well, and the light absorbance value at 492 nm was read with a microplate reader.
(6) IC50 of the compounds for different cells was calculated based on the light absorption value of each group. Specifically, the absorbance value under treatment with different concentrations of compounds was first subtracted from the absorbance value of the blank well, and then the absorbance value of the 0 μM group was taken as 100% to calculate the cell survival rate after treatment with different concentrations of compounds. […]

NCI-H1688 cells = assay: Cell viability IC50 (CCK-8), small cell lung cancer cell line H1688; assay type: cell-based; conditions: H1688, CCK-8
Experimental: (§13) Small cell lung cancer cell lines DMS114, NCI-H1688, NCI-H82, NCI-H146, and NCI-H446 cells were cultured in RPMI-1640 medium containing 10% fetal bovine serum and 1% penicillin-streptomycin. All the cells were cultured in a constant temperature incubator containing 5% CO2 at 37° C.
(§14) Small cell lung cancer is a highly heterogeneous malignant tumor, and its clinical treatment is mainly based on traditional chemotherapy (mainly platinum medicaments and etoposide). In order to study the anti-tumor activity of the compounds of the present disclosure in small cell lung cancer, the CCK-8 method was used to investigate the cell viability IC50 of compound 8 for five small cell lung cancer cell lines.

LT015 primary cells = assay: Cell viability IC50 (CCK-8), primary cells LT015 from small cell lung cancer bronchoscopic biopsy; assay type: cell-based; conditions: LT015, CCK-8
Experimental: (1) The tissue blocks obtained from the tumor patients were transferred from the preservation solution to the pre-cooled HBSS buffer containing antibiotics, and the tissue blocks were washed for three times with the pre-cooled HBSS buffer.
(2) Tissue was sheared on ice with sterile surgical instruments until no obvious tissue blocks are visible to the naked eye, the tissue fluid was collected into a 15 ml centrifuge tube, and this process takes about 5 to 10 minutes.
(3) Digestive enzymes (collagenase I, collagenase IV and neutral protease being mixed in a ratio of 1:1:1, a concentration of stock solution was 10 mg/ml, diluted with PBS buffer or HBSS buffer, and the use concentration was 1 mg/ml) were added to the centrifuge tube, and after mixing well by pipetting, the centrifuge tube was placed in a 37° C. constant temperature incubator for 1 to 2 hours.
(4) High-glucose medium was added to the centrifuge tube to stop digestion. After mixing well, the cell precipitate was collected by centrifugation, and resuspended with MBM medium (Advanced DMEM-F12+20 ng/ml bFGF+50 ng/ml EGF+1% ITS-X+2% B27+10 μMY-27632+1% PS). The cell suspension was placed in a Matrigel-coated 24-well plate and cultured for 5 to 7 days. When the cell density in the well plate reaches 80-90%, the cells were sub-cultured into a 6 cm cell culture dish, and when they grew to a density of 80% to 90%, the cells were cryopreserved for preservation.
(1) Primary cells from lung cancer pleural effusion within 5 generations were cultured to the logarithmic growth phase. When the confluence reached about 90%, the cells were digested with 0.25% trypsin, and complete culture medium was added to collect the cells. After centrifugation at room temperature, the supernatant was discarded, and the cell precipitate was resuspended with fresh complete culture medium. After counting, the cells were placed at room temperature for later use. The cells were inoculated into a 384-well plate at a density of 2000 cells/well with a volume of 40 μl/well. The wells at the outermost circle of the plate were not inoculated with cells, and instead, added with sterile water to reduce evaporation of the culture medium.
as §8, §9, §10, §11, §12

NCI-H446 cells = assay: Cell viability IC50 (CCK-8), small cell lung cancer cell line H446; assay type: cell-based; conditions: H446, CCK-8
Experimental: as §13, §14

NCI-H82 cells = assay: Cell viability IC50 (CCK-8), small cell lung cancer cell line H82; assay type: cell-based; conditions: H82, CCK-8
Experimental: as §13, §14

PE043 primary cells = assay: Cell viability IC50 (CCK-8), primary cells PE043 from lung adenocarcinoma pleural effusion resistant to EGFR-TKI; conditions: read-out: cell viability IC50; PE043, CCK-8
NCI-H146 cells = assay: Cell viability IC50 (CCK-8), small cell lung cancer cell line H146; assay type: cell-based; conditions: H146, CCK-8
Experimental: as §13, §14

DMS114 cells = assay: Cell viability IC50 (CCK-8), small cell lung cancer cell line DMS114; assay type: cell-based; conditions: DMS114, CCK-8
Experimental: as §13, §14

PE039 primary cells = assay: Cell viability IC50 (CCK-8), primary cells PE039 from small cell lung cancer pleural effusion; assay type: cell-based; conditions: PE039, CCK-8
Experimental: as §1, §2, §3, §4, §5, §6, §7, §8, §9
(4) The light absorbance value at 450 nm was read using a microplate reader, and the IC50 was calculated according to the absorbance value. The calculation method was the same as above. […]

[1] = test system: small cell lung cancer cell line H446 cells; assay: In vivo antitumor effect in mice bearing small cell lung cancer cell line H446 cells (CDX model)
Experimental: H446 cells in the logarithmic growth phase were suspended in PBS solution, and then inoculated subcutaneously in the right forelimb of nude mice. The cell density was about 2×10^8 cells/mL, and each mouse was inoculated with 0.1 mL of the cell suspension, for a total of 80 mice. When the subcutaneous tumor grew to range from 50 mm^3 to 100 mm^3, 40 tumor-bearing mice were randomly divided into groups and numbered, and drug administration began.
(1) Vehicle blank control group: 5% DMSO+20% PEG 300+75% saline (normal saline);
The cycle repeated twice, and no medication for the final 6 days.
All tumor-bearing mice were killed after 20 days.

SMILES: C=CC(=O)N1CCN(c2nc(=O)n(-c3c(C)ccnc3C(C)C)c3nc(-c4c(O)cccc4F)c(F)cc23)[C@@H](C)C1 [AMG510]
- IC50 (PE062 primary cells): > 10000 nM
- IC50 (PE052 primary cells): > 10000 nM
- IC50 (NCI-H1792 cells): > 10000 nM

SMILES: N.N.[Cl][Pt][Cl] [Cisplatin]
- IC50 (NCI-H1688 cells): 14100 nM
- IC50 (LT015 primary cells): 5460 nM
- IC50 (PE062 primary cells): 3210 nM
- IC50 (NCI-H446 cells): 559 nM
- IC50 (NCI-H82 cells): 1760 nM
- IC50 (PE043 primary cells): 31000 nM
- IC50 (NCI-H146 cells): 3890 nM
- IC50 (PE052 primary cells): 885 nM
- IC50 (DMS114 cells): 2150 nM
- IC50 (PE039 primary cells): 11100 nM

SMILES: CN1CCN(Cc2ccc(Nc3ncc(Cl)c(Nc4ccccc4S(=O)(=O)N(C)C)n3)cc2)CC1 [TP-0903]
- IC50 (NCI-H1688 cells; NCI-H1688): 534 nM
- IC50 (LT015 primary cells): 94.3 nM
- IC50 (PE062 primary cells): 5.1 nM
- IC50 (NCI-H446 cells; Homo sapiens, NCI-H446): 276 nM
- IC50 (NCI-H82 cells; Homo sapiens, NCI-H82): 35 nM
- IC50 (NCI-H146 cells; Homo sapiens, NCI-H146): 1540 nM
- IC50 (PE052 primary cells): 210 nM
- IC50 (DMS114 cells; Homo sapiens, DMS-114): 95.1 nM
- IC50 (PE039 primary cells): 134 nM
- inhibitory effect on tumor volume growth compared with blank control (FIG. 1) ([1]; H446 CDX nude mice, intraperitoneal injection, 20 days): no significant inhibitory effect on tumor volume growth
- animals survived ([1]; H446 CDX nude mice, intraperitoneal injection, 20 days, compound 8 and TP-0903 15 mg/kg once a day for 13 days, Cisplatin 2.5 mg/kg + Etoposide 4 mg/kg cycles): 11 of 12
- body weight changes of nude mice (FIG. 2) ([1]; during the drug administration period, recovered rapidly after drug withdrawal): no significant decrease in body weight
